TGI and GI50 data for 19 compounds are collected here from PubChem BioAssay (NCI).

Structures are written as SMILES. Values joined by “and” are separate entries in the source; they are usually repeats but may differ in a detail not shown here. Identical values can stand only once.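 These data come from cells grown in 96-well plates and exposed to compound for 48 hours at five concentrations. GI50 marks 50% less growth. TGI: total growth inhibition.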

The subject of one experiment is A549 NSCLC. As to the kind of experiment: growth of human tumour cells (NCI), 48 h.
Take `COC(=O)C1=C(C(=O)OC)C2(c3ccccc3)OC1(c1ccccc1)c1cc3ccccc3cc12`: the TGI is 5.32 µM.
`CC1NOC(=O)C1N=Nc1ccc(Cl)cc1Cl` (configuration not stated) gave a TGI of 65.9 µM.
For `Cc1cc(Cl)nc(N(CCNc2ccnc3cc(Cl)ccc23)Cc2ccco2)n1`, the GI50 was 3.1 µM and the TGI was determined as 13.1 µM.
Turning to `CCCCCCCCCCCC[C@@H](O)[C@H]1CC[C@H]([C@H](O)CC[C@H](O)[C@@H]2CC[C@@H](CCCCCCCC3=C[C@H](C)OC3=O)O2)O1`, the GI50 was 2.2 µM and the TGI is over 50 µM.
For `O=C(c1cccs1)c1c(C(F)(F)F)n([O-])c2cc(Cl)c(Cl)cc2[n+]1=O` the same measures were 2.72 µM and 5.85 µM.
The compound `CCOC(=O)/C(=C/c1ccccn1)C(=O)c1ccccc1` came in with a TGI of 44.5 µM.
Consider `C=CCN(CC=C)C(=O)c1cc(C)nc2c1c(=O)n(-c1ccccc1)c(=O)n2CCCN1CCN(c2ccccc2OC)CC1`, for which the GI50 is over 50 µM and the TGI was over 50 µM.
As for `COc1cc(-c2nccc3[nH]c(-c4ccc5cc[nH]c5c4)nc23)cc(OC)c1OC`, the GI50 was 0.0113 µM and the TGI was found to be 1.77 µM.
For `COCCOC1=C(Cl)C(=O)c2ccccc2C1=O`, the GI50 was 4.33 µM and the TGI is 21.8 µM.
Regarding `CCN(CC)c1ccc2nc3ccc(=[N+](CC)CC)cc-3oc2c1`, the GI50 was 0.826 µM and the TGI is over 100 µM.
With `CN1CCN(c2c(F)cc(NC3=C(Cl)C(=O)c4ncccc4C3=O)cc2F)CC1`, the GI50 is 18 µM and the TGI amounted to 35.4 µM.
With `COc1cc2nnc3c4cccnc4[nH]c3c2cc1OC`, the GI50 was 16 µM and 7.9 µM; the TGI was 50 µM and 31.7 µM.
On to `O=NN(CCCl)C(=O)NC1CCC(CC(=O)O)CC1` (configuration not stated), for which the TGI was over 100 µM.
On the same count and under the same terms, the figure for `NNC(=O)C(=O)NN=C(C(Cl)(Cl)CO)C(Cl)(Cl)CO` is over 100 µM; for `CCOC(=O)/C(=C\c1cccc(C)c1)C(C)=O` it is over 100 µM; for `COc1ccc2ccccc2c1C1=NC(C)(C)CO1` it is over 100 µM.
`COC12C(COC(=O)NCCO)C3=C(C(=O)C(C)=C(N)C3=O)N1CC1NC12` (configuration not stated): the GI50 is 29.7 µM and the TGI is over 264 µM.
As to `Nc1nccc(-c2c(-c3ccc(F)cc3)nn3cc(C(F)(F)F)ccc23)n1`, the GI50 was over 25 µM and the TGI was over 25 µM.
Compound `O=C(CCCC(=O)Nc1ccc(Cl)cc1Cl)CC(=O)c1ccc2ccccc2c1` yielded a TGI of over 100 µM.

For the next experiment, the system named is OVCAR-8 ovarian. As to the kind of experiment: growth of human tumour cells (NCI), 48 h.
In turn, `COC(=O)C1=C(C(=O)OC)C2(c3ccccc3)OC1(c1ccccc1)c1cc3ccccc3cc12` had a TGI of 2.96 µM.
`CC1NOC(=O)C1N=Nc1ccc(Cl)cc1Cl` (configuration not stated) came in with a TGI of 72 µM.
For `Cc1cc(Cl)nc(N(CCNc2ccnc3cc(Cl)ccc23)Cc2ccco2)n1`, the GI50 was 1.93 µM and the TGI was found to be 4.29 µM.
Regarding `CCCCCCCCCCCC[C@@H](O)[C@H]1CC[C@H]([C@H](O)CC[C@H](O)[C@@H]2CC[C@@H](CCCCCCCC3=C[C@H](C)OC3=O)O2)O1`, the GI50 was 6.6 µM and the TGI was over 50 µM.
For `O=C(c1cccs1)c1c(C(F)(F)F)n([O-])c2cc(Cl)c(Cl)cc2[n+]1=O`, the GI50 is 1.46 µM and the TGI was 3.47 µM.
In the case of `CCOC(=O)/C(=C/c1ccccn1)C(=O)c1ccccc1`, the TGI is 31.4 µM.
For `C=CCN(CC=C)C(=O)c1cc(C)nc2c1c(=O)n(-c1ccccc1)c(=O)n2CCCN1CCN(c2ccccc2OC)CC1`, the GI50 is over 50 µM and the TGI was over 50 µM.
`COc1cc(-c2nccc3[nH]c(-c4ccc5cc[nH]c5c4)nc23)cc(OC)c1OC`: the GI50 was under 0.01 µM and the TGI worked out at 11.1 µM.
`COCCOC1=C(Cl)C(=O)c2ccccc2C1=O`: the GI50 is 3.11 µM and the TGI was 10.7 µM.
Regarding `CCN(CC)c1ccc2nc3ccc(=[N+](CC)CC)cc-3oc2c1`, the GI50 was 0.121 µM.
On to `CN1CCN(c2c(F)cc(NC3=C(Cl)C(=O)c4ncccc4C3=O)cc2F)CC1`, for which the GI50 was 8.82 µM and the TGI is over 100 µM.
Consider `COc1cc2nnc3c4cccnc4[nH]c3c2cc1OC`, for which the GI50 is 3.91 µM and 1.25 µM; the TGI was 50 µM and > 100 µM.
`O=NN(CCCl)C(=O)NC1CCC(CC(=O)O)CC1` (configuration not stated) yielded a TGI of over 100 µM.
Still for that read-out and setting: with `NNC(=O)C(=O)NN=C(C(Cl)(Cl)CO)C(Cl)(Cl)CO` the figure was 57.9 µM; with `CCOC(=O)/C(=C\c1cccc(C)c1)C(C)=O`, 75.1 µM.
`COc1ccc2ccccc2c1C1=NC(C)(C)CO1`: the TGI is over 100 µM.
For `COC12C(COC(=O)NCCO)C3=C(C(=O)C(C)=C(N)C3=O)N1CC1NC12` (configuration not stated), the GI50 was 55 µM and the TGI was over 264 µM.
As to `Nc1nccc(-c2c(-c3ccc(F)cc3)nn3cc(C(F)(F)F)ccc23)n1`, the GI50 is over 25 µM and the TGI was over 25 µM.
Compound `O=C(CCCC(=O)Nc1ccc(Cl)cc1Cl)CC(=O)c1ccc2ccccc2c1` gave a TGI of over 100 µM.

The next experiment relates to HL-60(TB) leukemia. The experiment can be described thus: growth of human tumour cells (NCI), 48 h.
In turn, `COC(=O)C1=C(C(=O)OC)C2(c3ccccc3)OC1(c1ccccc1)c1cc3ccccc3cc12` yielded a TGI of 1.84 µM.
On to `CC1NOC(=O)C1N=Nc1ccc(Cl)cc1Cl` (configuration not stated), for which the TGI was determined as 44.8 µM.
With `Cc1cc(Cl)nc(N(CCNc2ccnc3cc(Cl)ccc23)Cc2ccco2)n1`, the GI50 is 1.65 µM and the TGI was found to be 3.59 µM.
Turning to `CCCCCCCCCCCC[C@@H](O)[C@H]1CC[C@H]([C@H](O)CC[C@H](O)[C@@H]2CC[C@@H](CCCCCCCC3=C[C@H](C)OC3=O)O2)O1`, the GI50 was over 50 µM; the TGI was 5.85 µM and > 50 µM.
In the case of `O=C(c1cccs1)c1c(C(F)(F)F)n([O-])c2cc(Cl)c(Cl)cc2[n+]1=O`, the GI50 is 0.362 µM and the TGI worked out at 3.53 µM.
Regarding `CCOC(=O)/C(=C/c1ccccn1)C(=O)c1ccccc1`, the TGI amounted to 5.3 µM.
Take `C=CCN(CC=C)C(=O)c1cc(C)nc2c1c(=O)n(-c1ccccc1)c(=O)n2CCCN1CCN(c2ccccc2OC)CC1`: the GI50 was over 50 µM and the TGI was over 50 µM.
As to `COc1cc(-c2nccc3[nH]c(-c4ccc5cc[nH]c5c4)nc23)cc(OC)c1OC`, the GI50 was under 0.01 µM and the TGI is under 0.01 µM.
